Test results: PubChem BioAssay AID2060620 (Molecular Pharmacology Branch, DTP, NCI, 2025)
Several values for one entry are separate records, joined by “and”; a condition that tells them apart may be missing. Equal entries are not always repeated. Values belong to the molecule of their own block, whether it stands above or below them.

Tested on: 328373-195-R-J1-PDC complex spheroids, viability % test/control
Assay: Anticancer human tumor 328373-195-R-J1-PDC patient-derived head and neck squamous carcinoma cell line growth inhibition [CLK]
Conditions: for viability, T/C: stronger effect = lower value
Text: A high-throughput screen of multi-cell type tumor spheroids was designed to identify active combinations of […] and targeted small molecules. Complex spheroids include a stromal component modeled by human endothelial cells (HUVEC) and fibroblasts modeled by human mesenchymal stem cells (MSCs). The concentration ranges selected for each drug and investigational agent were based upon clinically achievable concentrations if the clinical Cmax of the agent was known.
Compounds. The drugs and investigational agents: cirtuvivint (SM08502; NSC835563), CC-671 (NSC850746), vemurafenib (NSC761431), tapotoclax (NSC804041), sotorasib (NSC818433), adagrasib (NSC831453), MRTX-1133 (NSC836407), BAY2416964 (NSC825713), copanlisib (NSC816437), inavolisib (NSC800729), abemaciclib (NSC768073), osimertinib (NSC779217), entinostat (NSC756642), eltanexor (KPT-8602, NSC794443), venetoclax (NSC766270), ceralasertib (NSC777638), bortezomib (NSC756655), olaparib (NSC753686), talazoparib (NSC767125), alisertib (NSC759677), peposertib (NSC802822), gemcitabine (NSC613327), 5-fluorouracil (NSC19893), SN-38 (NSC673596), oxaliplatin (NSC266046), paclitaxel (NSC125973), and doxorubicin (NSC123127), were obtained from the National Cancer Institute (NCI) Developmental Therapeutics Program Chemical Repository. The FDA-approved anticancer drug set is available from the Developmental Therapeutics Program at https://dtp.cancer.gov/organization/dscb/obtaining/available plates.htm. […] The stock solutions were prepared in dimethyl sulfoxide (DMSO, Sigma-Aldrich, St. Louis, MO, cat. D2650), except for the platinum complexes which were prepared in saline (Quality Biological, Gaithersburg, MD, cat. 114-055-101), at 800-fold the tested concentration and stored at -70 degrees C prior to their use. All drugs and investigational agents were tested over a range starting from a high concentration at or near the clinical Cmax and decreasing in half-log increments. If the clinical Cmax for an agent had not been determined, the highest concentration tested was 10 microM.
Cell Culture. All cells were maintained in an incubator at 37 degrees C and 5% CO2 with 95% humidity. The PDC lines were cultured according to standard operating procedures established by the NCI PDMR. Briefly, all PDCs were thawed and cultured in Matrigel-coated flasks prepared with a working solution of 1X Ham's F-12 nutrient mix, without supplementation (Invitrogen, Waltham, MA, cat. 11765054), 100 U/mL penicillin-streptomycin (Invitrogen, cat. 15140122), and 2.5% Matrigel (Corning Inc., Corning, NY, cat. 354248) for the first three passages. The 947758-054-R-J2-PDC line was cultured in 6B/Colon 1A media, which includes advanced DMEM/F-12 (Thermo Fisher Scientific, cat. 12634028), 10 mM HEPES (Thermo Fisher Scientific, cat. 15630080), 1X GlutaMAX supplement (Thermo Fisher Scientific, cat. 35050061), 0.1 mg/mL primocin (InvivoGen, cat. ant-pm-2), 10% defined fetal bovine serum, heat inactivated (HyClone Laboratories Inc., cat. SH30070.03HI), 1.25 mM N-Acetyl-L-cysteine (Sigma-Aldrich, cat. A9165), 10 mM nicotinamide (Sigma-Aldrich, cat. N0636), 1X B-27 supplement (Thermo Fisher Scientific, cat. 17504044), 1X N-2 supplement (Thermo Fisher Scientific, cat. 17502048), and 10 microM Y-27632 dihydrochloride (Tocris Bioscience, cat. 1254). The 876862-298-R-J1-PDC was cultured in 6E media, which includes all 6B/Colon 1A media components plus 50% L-WRN conditioned media (ATCC, cat. CRL-3276), 50 ng/mL recombinant human EGF recombinant protein (hEGF; Thermo Fisher Scientific, cat. PHG0311), 10 ng/mL recombinant human fibroblast growth factor 10 (hGFG-10; PeproTech, cat. 100-26), 1 ng/mL recombinant human fibroblast growth factor 2 (hFGF-2; PeproTech, cat. 100-18B), and 1 µM prostaglandin E2 (PGE2; Tocris, cat. 2296). The 227483-062-R1-J1-PDC line was cultured in Panc media, containing all 6E components except hFGF-2, with the addition of 500 nM SB-431542 (Selleckchem, cat. S1067) and 10 nM gastrin (Tocris, cat. 3006). […]
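Also: spheroids exposed to the agents for 7 days.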

IC50 (curve of compound): 4.34 µM and 6.46 µM
SMILES: CC(Nc1ccc2c(c1)OCCn1cc(N3C(=O)OCC3C(F)F)nc1-2)C(N)=O (stereo unspecified)
viability, T/C (compound 0.0316 µM): 86% and 91.1% | viability, T/C (compound 0.1 µM): 76.5% and 86.9% | viability, T/C (compound 0.316 µM): 77.7% and 75.1% | viability, T/C (compound 1 µM): 73.9% and 78.2% | viability, T/C (compound 3.16 µM): 53.4% and 56.5% | viability, T/C (compound 10 µM): 40% and 44.6%

IC50 (curve of compound): 0.515 µM and 0.299 µM
SMILES: Nc1ccccc1NC(=O)c1ccc(CNC(=O)OCc2cccnc2)cc1
viability, T/C (compound 0.0316 µM): 87.1% and 84.6% | viability, T/C (compound 0.1 µM): 71.8% and 68.4% | viability, T/C (compound 0.316 µM): 54.6% and 49.4% | viability, T/C (compound 1 µM): 38.6% and 28.9% | viability, T/C (compound 3.16 µM): 31.2% and 21.1% | viability, T/C (compound 10 µM): 7.32% and 4.87%

SMILES: C=C(F)C(=O)N1CCN(c2nc(OCC3CCCN3C)nc3c2CCN(c2cccc4cccc(Cl)c24)C3)CC1CC#N (stereo unspecified) + CN1CCN(c2cc(C(=O)Nc3cc4cc(-c5cnn(C)c5)ccc4cn3)ccn2)CC1
IC50 (curve of first compound, second compound 0.0316 µM): 4.08 µM | IC50 (curve of first compound, second compound 0.1 µM): 3.57 µM | IC50 (curve of first compound, second compound 0.316 µM): < 0.0316 µM | IC50 (curve of first compound, second compound 1 µM): < 0.0316 µM | IC50 (curve of first compound, second compound 3.16 µM): < 0.0316 µM | IC50 (curve of first compound, second compound 10 µM): < 0.0316 µM | viability, T/C (second compound 0.0316 µM, first compound 0.0316 µM): 103% | viability, T/C (second compound 0.0316 µM, first compound 0.1 µM): 99.5% | viability, T/C (second compound 0.0316 µM, first compound 0.316 µM): 96.9% | viability, T/C (second compound 0.0316 µM, first compound 1 µM): 91.5% | viability, T/C (second compound 0.0316 µM, first compound 3.16 µM): 63% | viability, T/C (second compound 0.0316 µM, first compound 10 µM): 3.75% | viability, T/C (second compound 0.1 µM, first compound 0.0316 µM): 80.5% | viability, T/C (second compound 0.1 µM, first compound 0.1 µM): 90.8% | viability, T/C (second compound 0.1 µM, first compound 0.316 µM): 81.7% | viability, T/C (second compound 0.1 µM, first compound 1 µM): 81.6% | viability, T/C (second compound 0.1 µM, first compound 3.16 µM): 55.7% | viability, T/C (second compound 0.1 µM, first compound 10 µM): 1.67% | viability, T/C (second compound 0.316 µM, first compound 0.0316 µM): 35.2% | viability, T/C (second compound 0.316 µM, first compound 0.1 µM): 38.1% | viability, T/C (second compound 0.316 µM, first compound 0.316 µM): 34.7% | viability, T/C (second compound 0.316 µM, first compound 1 µM): 34.3% | viability, T/C (second compound 0.316 µM, first compound 3.16 µM): 22.8% | viability, T/C (second compound 0.316 µM, first compound 10 µM): 3.9% | viability, T/C (second compound 1 µM, first compound 0.0316 µM): 0.25% | viability, T/C (second compound 1 µM, first compound 0.1 µM): 4.59% | viability, T/C (second compound 1 µM, first compound 0.316 µM): 1.43% | viability, T/C (second compound 1 µM, first compound 1 µM): 0.34% | viability, T/C (second compound 1 µM, first compound 3.16 µM): 1.34% | viability, T/C (second compound 1 µM, first compound 10 µM): 0.52% | viability, T/C (second compound 3.16 µM, first compound 0.0316 µM): 2.92% | viability, T/C (second compound 3.16 µM, first compound 0.1 µM): 0.86% | viability, T/C (second compound 3.16 µM, first compound 0.316 µM): 1.39% | viability, T/C (second compound 3.16 µM, first compound 1 µM): 1.82% | viability, T/C (second compound 3.16 µM, first compound 3.16 µM): 5.78% | viability, T/C (second compound 3.16 µM, first compound 10 µM): 0.76% | viability, T/C (second compound 10 µM, first compound 0.0316 µM): 4.95% | viability, T/C (second compound 10 µM, first compound 0.1 µM): 2.58% | viability, T/C (second compound 10 µM, first compound 0.316 µM): 0.33% | viability, T/C (second compound 10 µM, first compound 1 µM): 0.79% | viability, T/C (second compound 10 µM, first compound 3.16 µM): 1.9% | viability, T/C (second compound 10 µM, first compound 10 µM): 0.96%
